Results published in patent publication US20230271950A1, “ANTIBACTERIAL PICOLINAMIDE COMPOUNDS” (University of Notre Dame Du Lac, priority 2020, published 2023).
Values after ≈ are worked out from the molar mass of the structure shown. Read-outs that look alike come from different tables or passages of the source.

Columns and labels:
[1] = system: C. difficile; test: MIC by broth microdilution against C. difficile strains; assay type: cell-based, Clostridioides difficile; settings: Clostridioides difficile; for MIC: read-out: MIC
[2] = system: MRSA (NRS70, NRS119); test: MIC against MRSA strains; assay type: cell-based, Staphylococcus aureus
[3] = system: S. aureus ATCC29213; test: MIC against MSSA; assay type: cell-based, Staphylococcus aureus; settings: Staphylococcus aureus; S. aureus ATCC29213; Table 1; read-out: MIC
[4] = system: Bacteroides fragilis; test: MIC against gut bacterium Bacteroides fragilis; assay type: cell-based; settings: Bacteroides fragilis strain HM-709
[5] = system: Bifidobacterium longum; test: MIC against gut bacterium Bifidobacterium longum; assay type: cell-based; settings: Bifidobacterium longum strain HM-846
[6] = system: Corynebacterium spp.; test: MIC against gut bacterium Corynebacterium spp.; assay type: cell-based; settings: Corynebacterium spp. strain HM-784; Table 1
[7] = system: Fusobacterium nucleatum; test: MIC against gut bacterium Fusobacterium nucleatum; assay type: cell-based; settings: Fusobacterium nucleatum strain HM-992
[8] = system: Lactobacillus reuteri; test: MIC against gut bacterium Lactobacillus reuteri; assay type: cell-based
[9] = system: Lactobacillus gasseri; test: MIC against gut bacterium Lactobacillus gasseri; assay type: cell-based
[10] = system: Veillonella sp. HM-49; test: MIC against gut bacterium Veillonella sp.; assay type: cell-based
[11] = system: Eubacterium sp.; test: MIC against gut bacterium Eubacterium sp.; assay type: cell-based; settings: Eubacterium sp. strain HM-178
[12] = system: Fecal microbiota preparation; test: MIC against fecal microbiota preparation; assay type: cell-based; settings: Fecal microbiota preparation from OpenBiome tested at 1000-fold dilution
Procedure: Minimum inhibitory concentrations (MIC). MICs for C. difficile strains and the common gut bacteria were determined using broth microdilution techniques as reported earlier using brucella broth supplemented with hemin and vitamin K or supplemented BHIS broth. Lactobacillus MRS broth was used for lactobacillus strains. Sodium lactate was supplemented in the media for Veillonella sp. […] All incubations, unless specified otherwise, were carried out at 24 h or 48 h at 37° C. in an anaerobic chamber (Whitley DG250 workstation, Microbiology International, Frederick, Md.). Corynebacterium and Lactobacillus species were incubated aerobically.

SMILES: CN[C@H](CC(C)C)C(=O)N[C@H]1C(=O)N[C@@H](CC(N)=O)C(=O)N[C@H]2C(=O)N[C@H]3C(=O)N[C@H](C(=O)N[C@H](C(=O)O)c4cc(O)cc(O)c4-c4cc3ccc4O)[C@H](O)c3ccc(c(Cl)c3)Oc3cc2cc(c3O[C@@H]2O[C@H](CO)[C@@H](O)[C@H](O)[C@H]2O[C@H]2C[C@](C)(N)[C@H](O)[C@H](C)O2)Oc2ccc(cc2Cl)[C@H]1O [VAN, vancomycin, reference compound]
- MIC ([1]; ATCC43598, C. difficile ATCC43598, Table 7): 1 µg/mL (≈ 0.69 µM)
- MIC ([1]; ATCC43598, C. difficile ATCC43598, Table 9): 1 µg/mL (≈ 0.69 µM)
- MIC ([1]; BAA1801, C. difficile BAA-1801, Table 7): 0.25 µg/mL (≈ 0.173 µM)
- MIC ([1]; BAA1801, C. difficile BAA-1801, Table 9): 0.25 µg/mL (≈ 0.173 µM)
- MIC ([1]; BAA1803, C. difficile BAA-1803, Table 7): 2 µg/mL (≈ 1.38 µM)
- MIC ([1]; BAA1803, C. difficile BAA-1803, Table 9): 2 µg/mL (≈ 1.38 µM)
- MIC ([1]; BAA1804, C. difficile BAA-1804, Table 7): 1 µg/mL (≈ 0.69 µM)
- MIC ([1]; BAA1804, C. difficile BAA-1804, Table 9): 1 µg/mL (≈ 0.69 µM)
- MIC ([1]; BAA1870, C. difficile BAA-1870 (NAP1, ribotype 27), Table 1): 2 µg/mL (≈ 1.38 µM)
- MIC ([1]; BAA1870, C. difficile BAA-1870, Table 7): 2 µg/mL (≈ 1.38 µM)
- MIC ([1]; BAA1870, C. difficile BAA-1870, Table 9): 2 µg/mL (≈ 1.38 µM)
- MIC ([1]; C. difficile 23691 (VR, vancomycin-resistant), Table 7): 4 µg/mL (≈ 2.76 µM)
- MIC ([1]; C. difficile 23691, clinical isolate resistant to VAN, Table 1): 4 µg/mL (≈ 2.76 µM)
- MIC ([1]; C. difficile 23691, Table 9): 4 µg/mL (≈ 2.76 µM)
- MIC ([1]; C. difficile 23828 (FR, fidaxomicin-resistant), Table 7): 2 µg/mL (≈ 1.38 µM)
- MIC ([1]; C. difficile 23828, clinical isolate resistant to FDX, Table 1): 2 µg/mL (≈ 1.38 µM)
- MIC ([1]; C. difficile 23828, Table 9): 2 µg/mL (≈ 1.38 µM)
- MIC ([1]; C. difficile 24531 (VR, vancomycin-resistant), Table 7): 4 µg/mL (≈ 2.76 µM)
- MIC ([1]; C. difficile 24531, Table 9): 4 µg/mL (≈ 2.76 µM)
- MIC ([1]; C. difficile 24923 (VR, vancomycin-resistant), Table 7): 8 µg/mL (≈ 5.52 µM)
- MIC ([1]; C. difficile 24923, Table 9): 8 µg/mL (≈ 5.52 µM)
- MIC ([1]; C. difficile 26675 (MR, metronidazole-resistant), Table 7): 1 µg/mL (≈ 0.69 µM)
- MIC ([1]; C. difficile 26675, clinical isolate resistant to MTZ, Table 1): 1 µg/mL (≈ 0.69 µM)
- MIC ([1]; C. difficile 26675, Table 9): 1 µg/mL (≈ 0.69 µM)
- MIC ([1]; C. difficile 27081 (FR, fidaxomicin-resistant), Table 7): 1 µg/mL (≈ 0.69 µM)
- MIC ([1]; C. difficile 27081, Table 9): 1 µg/mL (≈ 0.69 µM)
- MIC ([1]; C. difficile HM-89, Table 9): 0.25 µg/mL (≈ 0.173 µM)
- MIC ([1]; C. difficile NR49292, Table 7): 0.25 µg/mL (≈ 0.173 µM)
- MIC ([1]; C. difficile NR49292, Table 9): 0.25 µg/mL (≈ 0.173 µM)
- MIC ([1]; C. difficile NR49294, Table 7): 0.25 µg/mL (≈ 0.173 µM)
- MIC ([1]; C. difficile NR49294, Table 9): 0.25 µg/mL (≈ 0.173 µM)
- MIC ([1]; C. difficile NR49318, Table 7): 0.25 µg/mL (≈ 0.173 µM)
- MIC ([1]; C. difficile NR49318, Table 9): 0.25 µg/mL (≈ 0.173 µM)
- MIC ([1]; C. difficile NR-13427, Table 9): 1 µg/mL (≈ 0.69 µM)
- MIC ([1]; C. difficile NR-13428, Table 9): 2 µg/mL (≈ 1.38 µM)
- MIC ([1]; C. difficile NR-13431, Table 9): 0.25 µg/mL (≈ 0.173 µM)
- MIC ([1]; C. difficile NR-13433, Table 9): 1 µg/mL (≈ 0.69 µM)
- MIC ([1]; C. difficile NR-32885, Table 9): 1 µg/mL (≈ 0.69 µM)
- MIC ([1]; C. difficile NR-32889, Table 9): 2 µg/mL (≈ 1.38 µM)
- MIC ([1]; C. difficile NR-32890, Table 9): 2 µg/mL (≈ 1.38 µM)
- MIC ([1]; C. difficile NR-32891, Table 9): 1 µg/mL (≈ 0.69 µM)
- MIC ([1]; C. difficile NR-32895, Table 9): 2 µg/mL (≈ 1.38 µM)
- MIC ([1]; C. difficile NR-32896, Table 9): 2 µg/mL (≈ 1.38 µM)
- MIC ([1]; C. difficile NR-32897, Table 9): 0.25 µg/mL (≈ 0.173 µM)
- MIC ([1]; C. difficile NR-32900, Table 9): 1 µg/mL (≈ 0.69 µM)
- MIC ([1]; C. difficile NR-32904, Table 9): 0.25 µg/mL (≈ 0.173 µM)
- MIC ([1]; C. difficile NR-49280, Table 9): 1 µg/mL (≈ 0.69 µM)
- MIC ([1]; C. difficile NR-49285, Table 9): 0.25 µg/mL (≈ 0.173 µM)
- MIC ([1]; C. difficile NR-49291, Table 9): 1 µg/mL (≈ 0.69 µM)
- MIC ([1]; C. difficile NR-49298, Table 9): 1 µg/mL (≈ 0.69 µM)
- MIC ([1]; C. difficile NR-49306, Table 9): 1 µg/mL (≈ 0.69 µM)
- MIC ([1]; C. difficile NR-49307, Table 9): 1 µg/mL (≈ 0.69 µM)
- MIC ([1]; C. difficile NR-49309, Table 9): 1 µg/mL (≈ 0.69 µM)
- MIC ([1]; C. difficile NR-49320, Table 9): 1 µg/mL (≈ 0.69 µM)
- MIC ([1]; C. difficile NR-49321, Table 9): 0.25 µg/mL (≈ 0.173 µM)
- MIC ([1]; C. difficile NR-49328, Table 9): 0.25 µg/mL (≈ 0.173 µM)
- MIC ([1]; C. difficile NR-49329, Table 9): 0.25 µg/mL (≈ 0.173 µM)
- MIC90 ([1]; read-out: MIC90 (101 strains)): 2 µg/mL (≈ 1.38 µM)
- MIC ([2]; MRSA NRS70, Table 7): 2 µg/mL (≈ 1.38 µM)
- MIC ([2]; MRSA NRS119, Table 1): 2 µg/mL (≈ 1.38 µM)
- MIC ([2]; Staphylococcus aureus, MRSA NRS70, Table 1, read-out: MIC): 2 µg/mL (≈ 1.38 µM)
- MIC [3]: 1 µg/mL (≈ 0.69 µM)
- MIC ([4]; Table 1, read-out: MIC): 16 µg/mL (≈ 11 µM)
- MIC ([4]; Table 7): 16 µg/mL (≈ 11 µM)
- MIC ([5]; Table 1, read-out: MIC): 0.25 µg/mL (≈ 0.173 µM)
- MIC ([5]; Table 7): 0.25 µg/mL (≈ 0.173 µM)
- MIC [6]: 0.25 µg/mL (≈ 0.173 µM)
- MIC ([7]; Table 1, read-out: MIC): 0.25 µg/mL (≈ 0.173 µM)
- MIC ([7]; Table 7): 0.25 µg/mL (≈ 0.173 µM)
- MIC ([8]; Lactobacillus reuteri strain HM-102, Table 7): >32 µg/mL
- MIC ([8]; Limosilactobacillus reuteri, Lactobacillus reuter strain HM-102, Table 1, read-out: MIC): > 32 µg/mL
- MIC ([9]; Lactobacillus gasseri strain HM-644, Table 7): 1 µg/mL (≈ 0.69 µM)
- MIC ([9]; Lactobacillus gasseri, Lactobacillus gasser strain HM-644, Table 1, read-out: MIC): 1 µg/mL (≈ 0.69 µM)
- MIC ([10]; SP.HM49, Veillonella sp. HM-49, Table 1, read-out: MIC): > 32 µg/mL
- MIC ([10]; Veillonella sp. strain HM-49, Table 7): >32 µg/mL
- MIC ([11]; Table 1, read-out: MIC): 2 µg/mL (≈ 1.38 µM)
- MIC ([11]; Table 7): 2 µg/mL (≈ 1.38 µM)
- MIC [12]: > 128 µg/mL
